Tested on: hepatocytes
Assay: RNA-seq of hepatocytes treated with Phase III failure compounds
Protocol: RNA-seq was performed to determine the effects of the compounds on hepatocytes.
Significance was determined by the criteria of FPKM≥0.5, a log 2(fold-change)≥1, and a […].

## COc1cc2c(Oc3ccc4[nH]c(C)cc4c3F)ncnc2cc1OCCCN1CCCC1 [Cediranib]
  RNA-seq results, CYP2B6 expression: −0.46
  RNA-seq results, CYP2C19 expression: −0.80
  RNA-seq results, CYP2D6 expression: −0.12
  RNA-seq results, CYP3A4 expression: −0.75
  RNA-seq results, CYP7B1 expression: −0.93
  RNA-seq results, CYP39A1 expression: −0.61
  RNA-seq results: CYP2B6 expression: 0.41
  RNA-seq results: CYP2C19 expression: −1
  RNA-seq results: CYP2D6 expression: 0.79
  RNA-seq results: CYP3A4 expression: 1.58
  RNA-seq results: CYP7B1 expression: −0.02
  RNA-seq results: CYP39A1 expression: −0.24
RNA-seq, q≤0.05, hepatocytes, genes in the value or listed in the block
  significant modulation of expression of disease genes: significantly (q≤0.05) modulate expression
RNA-seq, hepatocytes
  effect on disease gene expression: effect on expression of too many disease genes
RNA-seq, hepatocytes, gene named in the value
  genes down-regulated by the compound: down-regulate Factor V levels
Gene A1BG, hepatocytes
  RNA-seq results: A1BG expression: 0.15
Gene AGTR1, hepatocytes
  RNA-seq results: AGTR1 expression: −0.32
Gene AGXT, hepatocytes
  RNA-seq results: AGXT expression: −0.23
Gene AHI1, hepatocytes
  RNA-seq results: AHI1 expression: −0.17
Gene AMPD3, hepatocytes
  RNA-seq results: AMPD3 expression: −0.52
Gene AMT, hepatocytes
  RNA-seq results: AMT expression: −0.23
Gene ANGPTL3, hepatocytes
  RNA-seq results: ANGPTL3 expression: −1.40
Gene ANKS4B, hepatocytes
  RNA-seq results: ANKS4B expression: −0.31
Gene ANKS6, hepatocytes
  RNA-seq results: ANKS6 expression: 0.09
Gene ANPEP, hepatocytes
  RNA-seq results: ANPEP expression: −0.85
Gene AOC2, hepatocytes
  RNA-seq results: AOC2 expression: −0.47
Gene APOA2, hepatocytes
  RNA-seq results: APOA2 expression: 0.16
Gene APOA5, hepatocytes
  RNA-seq results: APOA5 expression: −0.08
Gene APOB, hepatocytes
  RNA-seq results: APOB expression: −0.99
Gene COG5, hepatocytes
  RNA-seq results: COG5 expression: −0.45
Gene COG6, hepatocytes
  RNA-seq results: COG6 expression: −0.46
Gene COL1A1, hepatocytes
  RNA-seq results: COL1A1 expression: −0.72
Gene COX6A1, hepatocytes
  RNA-seq results: COX6A1 expression: 0.16
Gene CP, hepatocytes
  RNA-seq results: CP expression: 0.53
Gene CPS1, hepatocytes
  RNA-seq results: CPS1 expression: −0.28
Gene CPT1A, hepatocytes
  RNA-seq results: CPT1A expression: 0.16
Gene CPT2, hepatocytes
  RNA-seq results: CPT2 expression: 1.26
Gene CROT, hepatocytes
  RNA-seq results: CROT expression: 0.55
Gene CSPP1, hepatocytes
  RNA-seq results: CSPP1 expression: −0.7
Gene CTC1, hepatocytes
  RNA-seq results: CTC1 expression: −0.9
Gene CTDSP2, hepatocytes
  RNA-seq results: CTDSP2 expression: −0.18
Gene CTH, hepatocytes
  RNA-seq results: CTH expression: 0.66
Gene CTNS, hepatocytes
  RNA-seq results: CTNS expression: −1.18
Gene CTSF, hepatocytes
  RNA-seq results: CTSF expression: 0.6
Gene CTSK, hepatocytes
  RNA-seq results: CTSK expression: 0.02
Gene CYB5A, hepatocytes
  RNA-seq results: CYB5A expression: −0.16
Gene CYB5R3, hepatocytes
  RNA-seq results: CYB5R3 expression: 0.14
Gene CYP27A1, hepatocytes
  RNA-seq results: CYP27A1 expression: 0.51
Gene DAO, hepatocytes
  RNA-seq results: DAO expression: 0.23
Gene DBT, hepatocytes
  RNA-seq results: DBT expression: −0.33
Gene DCDC2, hepatocytes
  RNA-seq results: DCDC2 expression: −1.25
Gene DCXR, hepatocytes
  RNA-seq results: DCXR expression: 0.96
Gene FABP1, hepatocytes
  RNA-seq results: FABP1 expression: 0.4
Gene FADD, hepatocytes
  RNA-seq results: FADD expression: −0.23
Gene FAM111A, hepatocytes
  RNA-seq results: FAM111A expression: −0.68
Gene FAM111B, hepatocytes
  RNA-seq results: FAM111B expression: −0.13
Gene FAN1, hepatocytes
  RNA-seq results: FAN1 expression: −1.14
Gene FARS2, hepatocytes
  RNA-seq results: FARS2 expression: −0.84
Gene FASLG, hepatocytes
  RNA-seq results: FASLG expression: −1.48
Gene FGA, hepatocytes
  RNA-seq results: FGA expression: 0.87
Gene FGD1, hepatocytes
  RNA-seq results: FGD1 expression: −0.22
Gene FGFR2, hepatocytes
  RNA-seq results: FGFR2 expression: −0.16
Gene FIG4, hepatocytes
  RNA-seq results: FIG4 expression: −0.45
Gene FIS1, hepatocytes
  RNA-seq results: FIS1 expression: −0.27
Gene FTCD, hepatocytes
  RNA-seq results: FTCD expression: −0.68
Gene FTH1, hepatocytes
  RNA-seq results: FTH1 expression: −0.17
Gene FUCA1, hepatocytes
  RNA-seq results: FUCA1 expression: 1.44
Gene FXN, hepatocytes
  RNA-seq results: FXN expression: −1.56
Gene G6PC3, hepatocytes
  RNA-seq results: G6PC3 expression: −0.89
Gene G6PC, hepatocytes
  RNA-seq results: G6PC expression: 0.32
Gene G6PD, hepatocytes
  RNA-seq results: G6PD expression: 1.51
Gene GALK1, hepatocytes
  RNA-seq results: GALK1 expression: −0.27
Gene GALK2, hepatocytes
  RNA-seq results: GALK2 expression: 0.04
Gene GALT, hepatocytes
  RNA-seq results: GALT expression: −0.02
Gene GATA6, hepatocytes
  RNA-seq results: GATA6 expression: −0.1
Gene GATM, hepatocytes
  RNA-seq results: GATM expression: −0.66
Gene GBA, hepatocytes
  RNA-seq results: GBA expression: −0.06
Gene GBE1, hepatocytes
  RNA-seq results: GBE1 expression: −0.62
Gene GCH1, hepatocytes
  RNA-seq results: GCH1 expression: 1.49
Gene GCKR, hepatocytes
  RNA-seq results: GCKR expression: −1.15
Gene GCLC, hepatocytes
  RNA-seq results: GCLC expression: 0.3
Gene GOSH, hepatocytes
  RNA-seq results: GOSH expression: −0.39
Gene RRM2B, hepatocytes
  RNA-seq results: RRM2B: −0.75
Gene RSAD1, hepatocytes
  RNA-seq results: RSAD1: 0.13
Gene SAMHD1, hepatocytes
  RNA-seq results: SAMHD1: −1.05
Gene SC5D, hepatocytes
  RNA-seq results: SC5D: 0.51
Gene SCARB1, hepatocytes
  RNA-seq results: SCARB1: −0.30
Gene SCN9A, hepatocytes
  RNA-seq results: SCN9A: −0.39
Gene SDCCAG8, hepatocytes
  RNA-seq results: SDCCAG8: −0.30
Gene SEPN1, hepatocytes
  RNA-seq results: SEPN1: −0.85
Gene SERAC1, hepatocytes
  RNA-seq results: SERAC1: −0.14
Gene SERPINA1, hepatocytes
  RNA-seq results: SERPINA1: −0.19
Gene SERPING1, hepatocytes
  RNA-seq results: SERPING1: −0.29
Gene SERPINI1, hepatocytes
  RNA-seq results: SERPINI1: −0.73
Gene SETBP1, hepatocytes
  RNA-seq results: SETBP1: −0.30
Gene SFXN4, hepatocytes
  RNA-seq results: SFXN4: −0.01
Gene SLC10A1, hepatocytes
  RNA-seq results: SLC10A1: −0.88
Gene SLC10A3, hepatocytes
  RNA-seq results: SLC10A3: −0.50
Gene SLC10A5, hepatocytes
  RNA-seq results: SLC10A5: −0.90
Gene SLC10A7, hepatocytes
  RNA-seq results: SLC10A7: −0.52
Gene SLC11A2, hepatocytes
  RNA-seq results: SLC11A2: −0.59
Gene SLC19A1, hepatocytes
  RNA-seq results: SLC19A1: −0.45
Gene SLC19A2, hepatocytes
  RNA-seq results: SLC19A2: −0.03
Gene SLC19A3, hepatocytes
  RNA-seq results: SLC19A3: −0.68
Gene SLC22A1, hepatocytes
  RNA-seq results: SLC22A1: −0.13
Gene SLC22A5, hepatocytes
  RNA-seq results: SLC22A5: 0.06
Gene SLC25A1, hepatocytes
  RNA-seq results: SLC25A1: −0.09
Gene SLC25A10, hepatocytes
  RNA-seq results: SLC25A10: −0.40
Gene SLC25A12, hepatocytes
  RNA-seq results: SLC25A12: −0.41
Gene SLC25A13, hepatocytes
  RNA-seq results: SLC25A13: −0.29
Gene SLC25A15, hepatocytes
  RNA-seq results: SLC25A15: −0.47
Gene SLC25A19, hepatocytes
  RNA-seq results: SLC25A19: 0.26
Gene SLC25A20, hepatocytes
  RNA-seq results: SLC25A20: −0.32
Gene SLC25A29, hepatocytes
  RNA-seq results: SLC25A29: −0.11
Gene SLC25A32, hepatocytes
  RNA-seq results: SLC25A32: −0.13

Source: US20210254056A1, “IDENTIFICATION AND TARGETED MODULATION OF GENE SIGNALING NETWORKS” (CAMP4 THERAPEUTICS CORPORATION, priority 2017, published 2021)
